Common to all, as to format: cell-based, human
In experiment [1] the test system is HT-29 cells. As to the kind of experiment: Apo-ONE Homogeneous Caspase-3/7 apoptosis assay in HT-29 cells (positive control). The settings on record: 10^-6 M.
Experiment [2] has as its system HT-29 cells. Put plainly: Cell viability / growth of HT-29 cells. The source says: (§1) Two human-derived CaP cell lines were used, i.e. the androgen-responsive cell line LNCaP, and the androgen-unresponsive cell line DU145 as well as the colorectal adenocarcinoma HT-29 cell line. The three cell lines were purchased from American Type Culture Collection (ATCC, Rockville, Md.). The LNCaP cells were maintained in RPMI 1640 medium supplemented with 10% fetal bovine serum (FBS), 1% penicillin/streptomycin and 1% glutamine (complete medium). The DU145 cells were maintained in Dulbecco modified Eagle's minimal essential medium (DMEM) supplemented with 10% FBS and 1% penicillin/streptomycin (complete medium). The HT-29 cells were maintained in DMEM supplemented with 10% FBS, 1% penicillin/streptomycin and 1% glutamine. […]
(§2) Cell viability was determined by using the CellTiter-Blue® assay (Promega, Charbonnières, France). Cell apoptosis was quantified by evaluating the enzymatic activities of Caspase 3/7 by using the Apo-ONE® Homogeneous Caspase-3/7 Assay (promega). Briefly, the enzymes were measured in intact and differentiated DU145 culture cells after a 3-days incubation with OxA or OxB (10^-6M) in 96-well plates. The cells were incubated with fluorogenic peptide specific to caspase 3 and 7 enzymes, and detection of fluorescent product over time was monitored in a spectrofluorometer Flex Station 3 (Molecular Devices, St. Grégoire, France) at 485 nm excitation and 527 nm emission. […]

For experiment [3], the system named is DU145 cells. As to the kind of experiment: Apo-ONE Homogeneous Caspase-3/7 apoptosis assay in DU145 cells (native or neuroendocrine-differentiated). The settings on record: 10^-6 M, 3 days.
Source text: as §1, §2

Experiment [4] has as its system DU145 cells. As to the kind of experiment: CellTiter-Blue cell viability / growth of DU145 cells. To be noted: native DU145 cells, 10^-6 M, 3 days.
Source text: as §1, §2
(Resazurin is reduced to fluorescent resorufin, in cell work by metabolically active cells.)

Entries after “also recorded” stand apart in the source; their conditions may differ.

Consider Orexin-B [OxB], for which the “apoptosis (Caspase 3/7 activity)” value in the experiment with HT-29 cells [1] is on record as “promoted significantly the apoptosis”; with DU145 cells [3] (DU145 cells submitted to neuroendocrine differentiation (db-cAMP 1 mM/IBMX 0.1 mM)), “promote cell death”; in the experiment with DU145 cells [3] (native DU145 cells), “did not alter apoptosis; also recorded: has no effect on the apoptosis rate”. Further, the results for the cell growth result with HT-29 cells [2] and in the experiment on DU145 cells [4] were “inhibited cell growth” and “increased cell growth”, respectively.

The values above are taken from patent publication US20170319661A1, “Methods and Pharmaceutical Compositions Using Orexins (OXA, OXB) for the Treatment of Prostate Cancers” (INSERM (Institut National de la Sante et de la Recherche …, priority 2014, published 2017).
